≈ marks a conversion by molar mass, not a printed value. Calls of active or inactive are those of the source. The rule behind the calls is not given here.
Tests used:
Escherichia coli [1] = assay: Antimicrobial activity against Escherichia coli MTCC 739 after 24 hrs by well diffusion method; assay type: functional; details: MTCC 739, 24 h
Pseudomonas aeruginosa = assay: Antimicrobial activity against Pseudomonas aeruginosa MTCC 2453 after 24 hrs by well diffusion method; assay type: functional; details: MTCC 2453, 24 h
Bacillus subtilis [2] = assay: Antimicrobial activity against Bacillus subtilis MTCC 121 after 24 hrs by well diffusion method; assay type: functional; details: MTCC 121, 24 h
Micrococcus luteus = assay: Antimicrobial activity against Micrococcus luteus MTCC 2470 after 24 hrs by well diffusion method; assay type: functional; details: MTCC 2470, 24 h
Staphylococcus aureus [3] = assay: Antimicrobial activity against Staphylococcus aureus MLS-16 MTCC 2940 after 24 hrs by well diffusion method; assay type: functional; details: MLS-16 MTCC 2940, 24 h
Candida albicans = assay: Antimicrobial activity against Candida albicans MTCC 3017 after 24 hrs by well diffusion method; assay type: functional, organism-based
Raoultella planticola = assay: Antimicrobial activity against Klebsiella planticola MTCC 530 after 24 hrs by well diffusion method; assay type: functional; details: MTCC 530, 24 h
Staphylococcus aureus [4] = assay: Antimicrobial activity against Staphylococcus aureus MLS-16 MTCC 2940 assessed as inhibition of biofilm formation after 24 hrs; assay type: functional, organism-based; details: MLS-16, 24 h
Escherichia coli [5] = assay: Antimicrobial activity against Escherichia coli MTCC 739 assessed as inhibition of biofilm formation after 24 hrs; assay type: functional, organism-based; details: MTCC 739, 24 h
Bacillus subtilis [6] = assay: Antimicrobial activity against Bacillus subtilis MTCC 121 assessed as inhibition of biofilm formation after 24 hrs; assay type: functional, organism-based; details: MTCC 121, 24 h
Staphylococcus aureus [7] = assay: Bactericidal activity against Staphylococcus aureus MLS-16 MTCC 2940 after 24 hrs by Mueller Hinton agar plate assay; assay type: functional; details: MLS-16, 24 h
Escherichia coli [8] = assay: Bactericidal activity against Escherichia coli MTCC 739 after 24 hrs by Mueller Hinton agar plate assay; assay type: functional; details: MTCC 739, 24 h
Bacillus subtilis [9] = assay: Bactericidal activity against Bacillus subtilis MTCC 121 after 24 hrs by Mueller Hinton agar plate assay; assay type: functional; details: MTCC 121, 24 h

Compound	MIC (Escherichia coli [1]) [µg/mL]	MIC (Pseudomonas aeruginosa) [µg/mL]	MIC (Bacillus subtilis [2]) [µg/mL]	MIC (Micrococcus luteus) [µg/mL]	MIC (Staphylococcus aureus [3]) [µg/mL]	MIC (Candida albicans)	MIC (Raoultella planticola) [µg/mL]	IC50 (Staphylococcus aureus [4]) [µg/mL]	IC50 (Escherichia coli [5]) [µg/mL]	IC50 (Bacillus subtilis [6]) [µg/mL]	MBC (Staphylococcus aureus [7]) [µg/mL]	MBC (Escherichia coli [8]) [µg/mL]	MBC (Bacillus subtilis [9]) [µg/mL]
O=c1cc(CO)oc(C2C=C(c3ccccc3Br)Oc3ccccc32)c1O (configuration not stated)	> 125	> 125	> 125	> 125	> 125	inactive	> 125	–	–	–	–	–	–
O=c1cc(CO)oc(C2C=C(c3ccccc3)Oc3ccc(Br)cc32)c1O (configuration not stated)	> 125	> 125	> 125	> 125	> 125	inactive	> 125	–	–	–	–	–	–
O=c1cc(CO)oc(C2C=C(c3ccc4c(c3)OCO4)Oc3ccccc32)c1O (configuration not stated)	15.6 (≈ 39.8 µM)	> 125	7.8 (≈ 19.9 µM)	> 125	> 125	inactive	> 125	> 125	17.8 (≈ 45.4 µM)	8.1 (≈ 20.6 µM)	> 125	31.2 (≈ 79.5 µM)	15.6 (≈ 39.8 µM)
O=c1cc(CO)oc(C2C=C(c3cccc(O)c3)Oc3ccccc32)c1O (configuration not stated)	> 125	> 125	> 125	> 125	> 125	inactive	> 125	–	–	–	–	–	–
Cc1ccc(C2=CC(c3oc(CO)cc(=O)c3O)c3ccccc3O2)cc1 (configuration not stated)	7.8 (≈ 21.5 µM)	> 125	15.6 (≈ 43 µM)	> 125	15.6 (≈ 43 µM)	inactive	> 125	18.6 (≈ 51.3 µM)	9.1 (≈ 25.1 µM)	20.1 (≈ 55.5 µM)	31.2 (≈ 86.1 µM)	15.6 (≈ 43 µM)	31.2 (≈ 86.1 µM)
CC1=CC(c2oc(CO)cc(=O)c2O)c2ccccc2O1 (configuration not stated)	> 125	> 125	> 125	> 125	> 125	inactive	> 125	–	–	–	–	–	–
O=c1cc(CO)oc(C2C=C(c3ccccc3)Oc3c(Cl)cc(Br)cc32)c1O (configuration not stated)	> 125	> 125	> 125	> 125	> 125	inactive	> 125	–	–	–	–	–	–
CCC1=CC(c2oc(CO)cc(=O)c2O)c2ccccc2O1 (configuration not stated)	> 125	> 125	> 125	> 125	> 125	inactive	> 125	–	–	–	–	–	–
O=C(O)c1cn(C2CC2)c2cc(N3CCNCC3)c(F)cc2c1=O [CIPROFLOXACIN]	0.9 (≈ 2.72 µM)	0.9 (≈ 2.72 µM)	0.9 (≈ 2.72 µM)	0.9 (≈ 2.72 µM)	0.9 (≈ 2.72 µM)	inactive	0.9 (≈ 2.72 µM)	–	–	–	1.9 (≈ 5.73 µM)	1.9 (≈ 5.73 µM)	0.9 (≈ 2.72 µM)
COc1ccc(C2=CC(c3oc(CO)cc(=O)c3O)c3ccccc3O2)cc1 (configuration not stated)	7.8 (≈ 20.6 µM)	> 125	7.8 (≈ 20.6 µM)	> 125	15.6 (≈ 41.2 µM)	inactive	> 125	15.4 (≈ 40.7 µM)	6.1 (≈ 16.1 µM)	10.2 (≈ 27 µM)	31.2 (≈ 82.5 µM)	7.8 (≈ 20.6 µM)	15.6 (≈ 41.2 µM)
O=c1cc(CO)oc(C2C=C(c3cccs3)Oc3ccccc32)c1O (configuration not stated)	15.6 (≈ 44 µM)	> 125	7.8 (≈ 22 µM)	> 125	7.8 (≈ 22 µM)	inactive	> 125	8.8 (≈ 24.8 µM)	18.2 (≈ 51.4 µM)	4.6 (≈ 13 µM)	15.6 (≈ 44 µM)	31.2 (≈ 88 µM)	7.8 (≈ 22 µM)
CC(C)CC1=CC(c2oc(CO)cc(=O)c2O)c2ccccc2O1 (configuration not stated)	> 125	> 125	7.8 (≈ 23.8 µM)	> 125	7.8 (≈ 23.8 µM)	inactive	> 125	9.2 (≈ 28 µM)	> 125	11.3 (≈ 34.4 µM)	15.6 (≈ 47.5 µM)	> 125	15.6 (≈ 47.5 µM)
O=c1cc(CO)oc(C2C=C(c3cc(F)cc(F)c3)Oc3ccccc32)c1O (configuration not stated)	> 125	> 125	> 125	> 125	> 125	inactive	> 125	–	–	–	–	–	–
O=c1cc(CO)oc(C2C=C(c3ccccc3)Oc3ccc(Cl)cc32)c1O (configuration not stated)	> 125	> 125	> 125	> 125	> 125	inactive	> 125	–	–	–	–	–	–
O=c1cc(CO)oc(C2C=C(c3ccc4ccccc4c3)Oc3ccccc32)c1O (configuration not stated)	> 125	> 125	> 125	> 125	> 125	inactive	> 125	–	–	–	–	–	–
O=c1cc(CO)oc(C2C=C(c3ccc(Cl)cc3)Oc3ccccc32)c1O (configuration not stated)	> 125	> 125	7.8 (≈ 20.4 µM)	> 125	15.6 (≈ 40.8 µM)	inactive	> 125	9.1 (≈ 23.8 µM)	> 125	3.6 (≈ 9.4 µM)	15.6 (≈ 40.8 µM)	> 125	7.8 (≈ 20.4 µM)
O=c1cc(CO)oc(C2C=C(c3ccccc3)Oc3ccccc32)c1O (configuration not stated)	7.8 (≈ 22.4 µM)	> 125	3.9 (≈ 11.2 µM)	> 125	7.8 (≈ 22.4 µM)	inactive	> 125	8.3 (≈ 23.8 µM)	5.2 (≈ 14.9 µM)	3.4 (≈ 9.76 µM)	15.6 (≈ 44.8 µM)	7.8 (≈ 22.4 µM)	7.8 (≈ 22.4 µM)
CC[C@H]1OC(=O)[C@H](C)[C@@H](O[C@H]2C[C@@](C)(OC)[C@@H](O)[C@H](C)O2)[C@H](C)[C@@H](O[C@@H]2O[C@H](C)C[C@H](N(C)C)[C@H]2O)[C@](C)(O)C[C@@H](C)C(=O)[C@H](C)[C@@H](O)[C@]1(C)O [ERYTHROMYCIN]	–	–	–	–	–	–	–	0.23 (≈ 0.313 µM)	0.31 (≈ 0.422 µM)	0.19 (≈ 0.259 µM)	–	–	–
